# Reference: publication PMC8809056 (Science (New York, N.y.), 2021)
# Tested on: SARS-CoV-2 wild-type, B.1.1.7, B.1.351 and P.1
# Test: not given
# Format: cell-based
# Conditions: not given
row,SMILES,Viral progeny production
1,Cc1ccc(NC(=O)c2ccc(CN3CCN(C)CC3)cc2)cc1Nc1nc(-c2cccnc2)cs1 [Masitinib],dramatically reduced viral progeny production

# Tested on: SARS-CoV-2 (nCoV/Washington/1/2020)
# Test: microbe, parasite or virus in culture
# Format: cell-based
# Conditions: not given
row,SMILES,Inhibition of SARS-CoV-2 infection when added after infection
1,Cc1ccc(NC(=O)c2ccc(CN3CCN(C)CC3)cc2)cc1Nc1nc(-c2cccnc2)cs1 [Masitinib],effective in inhibiting SARS-CoV-2 infection

# Same assay, conditions: A549-ACE2 cells
row,SMILES,Inhibition of SARS-CoV-2 infection (in words)
1,C[C@@H]1[C@H](O)[C@@H](C)/C=C/C=C/C=C/C=C/C=C/C=C/C=C/[C@H](O[C@@H]2O[C@H](C)[C@@H](O)[C@H](N)[C@@H]2O)C[C@@H]2O[C@](O)(C[C@@H](O)C[C@@H](O)[C@H](O)CC[C@@H](O)C[C@@H](O)CC(=O)O[C@H]1C)C[C@H](O)[C@H]2C(=O)O [Amphotericin B],did not inhibit SARS-CoV-2 infection
2,COC(=O)N[C@H](C(=O)N1CCC[C@H]1c1nc(-c2ccc3c(c2)O[C@@H](c2ccccc2)n2c-3cc3cc(-c4c[nH]c([C@@H]5CCCN5C(=O)[C@@H](NC(=O)OC)C(C)C)n4)ccc32)c[nH]1)C(C)C [Elbasvir],did not inhibit SARS-CoV-2 infection
3,Cc1ccc(NC(=O)c2ccc(CN3CCNCC3)cc2)cc1Nc1nc(-c2cccnc2)cs1 [AB3280],maintains its antiviral activity

# Same assay, conditions: Severe acute respiratory syndrome coronavirus 2, A549-ACE2; read-out: EC50 against SARS-CoV-2 infection
row,SMILES,EC50 [nM]
1,CN1CCCC(n2nc(Cc3ccc(Cl)cc3)c3ccccc3c2=O)CC1 (stereo not drawn) [Azelastine],2400
2,CCC(CC)COC(=O)[C@H](C)N[P@](=O)(OC[C@H]1O[C@@](C#N)(c2ccc3c(N)ncnn23)[C@H](O)[C@@H]1O)Oc1ccccc1 [Remdesivir],720
3,OCCN1CCN(CCC=C2c3ccccc3Sc3ccc(C(F)(F)F)cc32)CC1 [Flupenthixol],760
4,COc1ccc2cc1Oc1ccc(cc1)C[C@H]1c3c(cc4c(c3Oc3cc5c(cc3OC)CCN(C)[C@@H]5C2)OCO4)CCN1C [Cepharanthine],100
5,CS(=O)(=O)CCNCc1ccc(-c2ccc3ncnc(Nc4ccc(OCc5cccc(F)c5)c(Cl)c4)c3c2)o1 [Lapatinib],1600
6,CC(CN(C)C)CN1c2ccccc2CCc2ccccc21 (stereo not drawn) [Trimipramine],1500
7,Cc1ccc(NC(=O)c2ccc(CN3CC[C@H](N(C)C)C3)c(C(F)(F)F)c2)cc1Nc1nccc(-c2cncnc2)n1 [Bafetinib],2200
